{"source": "patent US20150283120A1", "about": "“ANTIBIOTIC METHODS AND COMPOSITIONS FOR BACTERIA INFECTIONS” (THE UNIVERSITY OF CHICAGO, priority 2012, published 2015)", "key": {"strain 11095": {"system": "strain 11095", "assay": "Checkerboard oxacillin + compound, strain 11095", "set-up": "MIC OX / MIC OX (+) / MIC cmpd alone: unit not given beside the values", "conditions": "for FICi: oxacillin + compound"}, "[1]": {"system": "vraSR transcription (Pvra::lux)", "format": "cell-based, Staphylococcus aureus", "conditions": "compound 10 μM + oxacillin 2 μg/mL", "in_short": "(§1)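 Secondary screen: compound at 10 μM plus oxacillin 2 μg/mL, four biological replicates, luminescence read every 15 minutes. RG and RL are OD600 or max LU with compound plus oxacillin over pooled same-plate oxacillin controls; RL <0.8 repressor, >1.2 stimulator, 0.80-1.2 neutral.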"}, "[2]": {"system": "MRSA strain USA300 Pvra-lux", "format": "cell-based, Staphylococcus aureus", "conditions": "compound 10 μM + oxacillin 2 μg/mL", "in_short": "as §1"}, "VRS2": {"system": "VRS2", "assay": "microbe, parasite or virus in culture", "format": "cell-based, Staphylococcus aureus", "conditions": "VRS2", "excerpt": "(§2) As shown in the analysis of the checkerboard assays (Table 6), gossypol fully potentiated vancomycin (FIC i<0.5) in hVISA, VISA, VRS2 and VRS1. […] Clomiphene partially potentiated vancomycin in hVISA, VISA, and VRS1 and it fully potentiated in strain VRS2."}, "VRS1": {"system": "VRS1", "assay": "microbe, parasite or virus in culture", "format": "cell-based, Staphylococcus aureus", "conditions": "VRS1", "excerpt": "as §2"}, "hVISA 2275": {"system": "hVISA 2275", "assay": "microbe, parasite or virus in culture", "format": "cell-based, Staphylococcus aureus", "conditions": "hVISA 2275", "excerpt": "as §2"}, "diverse MRSA strains": {"system": "diverse MRSA strains", "assay": "MIC of oxacillin with a single concentration of compound in multiple MRSA strains", "format": "cell-based, Staphylococcus aureus", "method": "Testing potentiation of oxacillin by compounds in multiple MRSA strains: In order to be considered a synergistic agent in therapy of MRSA infection, it must be effective as a potentiator in diverse MRSA strains. To determine whether the oxacillin potentiators were effective against MRSA strains besides USA300, a single effective concentration of three compounds that were not known as antibiotics—gossypol, pyrvinium and clomiphene—were tested against multiple MRSA genetic backgrounds. Each compound was tested at a single optimal concentration, determined in the checkerboard assays, in combination with various concentrations of oxacillin. The strains included in this panel were from diverse genetic backgrounds as determined by multilocus sequence type (MLST) and contained a variety of SCCmec types. […] The MIC80 was […] for clomiphene, gossypol, and pyrvinium, respectively."}, "[3]": {"system": "MRSA strain USA300-isolate 923", "assay": "Checkerboard MIC testing of compounds with oxacillin", "format": "cell-based, Staphylococcus aureus", "conditions": "for oxacillin MIC: strain 923, 24 h"}, "[4]": {"system": "vraSR operon (vra promoter, Pvra::lux)", "assay": "Primary screen: Pvra-lux luminescence (vraSR induction)", "format": "cell-based, Staphylococcus aureus", "conditions": "compound 10 μM, oxacillin 2 μg/mL; luminescence at 2 hours; library screened twice"}, "MRSA strain 8004-01": {"system": "MRSA strain 8004-01", "assay": "Checkerboard oxacillin + compound, strain 8004-01", "set-up": "MIC OX / MIC OX (+) / MIC cmpd alone: unit not given beside the values", "conditions": "strain 8004-1 (ST239)"}, "[5]": {"system": "test strain (923 pPvra-lux)", "assay": "Primary screen: growth (OD) of test strain with compound, with and without oxacillin", "format": "cell-based, Staphylococcus aureus", "conditions": "compound 10 μM, with and without oxacillin 2 μg/mL; OD at 24 h; library screened twice"}, "vraR transcription": {"system": "vraR transcription", "assay": "Tertiary screen: qRT-PCR of vraR in strain 923", "format": "cell-based, Staphylococcus aureus"}, "VISA 2283": {"system": "VISA 2283", "assay": "microbe, parasite or virus in culture", "format": "cell-based, Staphylococcus aureus", "conditions": "VISA 2283; with vancomycin; listed as Pyr", "excerpt": "as §2"}, "[6]": {"conditions": "oxacillin in combination with compound"}, "[7]": {"conditions": "Staphylococcus aureus, compound alone, read-out: MIC compound"}}, "note": "“Also recorded” adds a separate entry of the source.", "data": [{"smiles": "Cc1cc(/C=C/c2ccc3cc(N(C)C)ccc3[n+]2C)c(C)n1-c1ccccc1", "note": "[Pyrvinium pamoate, 2-[(E)-2-(2,5-Dimethyl-1-phenylpyrrol-3-yl)ethenyl]-N,N,1-trimethylquinolin-1-ium-6-amine]", "values": [{"measurement": "FIC Compound", "setting": "strain 11095", "result": 0.25}, {"measurement": "FIC Ox", "setting": "strain 11095", "result": ".0078"}, {"measurement": "MIC cmpd alone", "setting": "strain 11095", "result": 16}, {"measurement": "fold decrease of the oxacillin MIC", "setting": "strain 11095", "result": 128, "unit": "fold"}, {"measurement": "FICi", "setting": "strain 11095", "result": 0.26}, {"measurement": "FICi", "setting": "strain 11095; listed as Pyr", "result": ".26"}, {"measurement": "MIC OX (+)", "setting": "strain 11095; [6]", "result": 4}, {"measurement": "Effect on vraSR transcription", "setting": "[1]", "result": "repress (“vraSR repressors” (mean RL of <0.8))"}, {"measurement": "RL avg (relative luminescence)", "setting": "[1]; ratio of LU to oxacillin alone, four runs", "result": 0.31}, {"measurement": "OD600 category", "setting": "[2]", "result": "inhibited (of <0.8 were classified as oxacillin synergists or potentiators)"}, {"measurement": "RG avg (relative growth)", "setting": "[2]; ratio of OD600 to oxacillin alone, four runs", "result": 0.39}, {"measurement": "MIC", "setting": "VRS2; [7]", "result": 1.12, "unit": "µg/mL"}, {"measurement": "Synergy category", "setting": "VRS2; with vancomycin, listed as Pyr", "result": "synergistic (fully potentiated vancomycin (FIC i<0.5))"}, {"measurement": "MIC", "setting": "VRS1; [7]", "result": 2.24, "unit": "µg/mL"}, {"measurement": "fold decrease Van MIC", "setting": "VRS1", "result": 64, "unit": "fold"}, {"measurement": "MIC", "setting": "hVISA 2275; [7]", "result": 16, "unit": "µg/mL"}, {"measurement": "FICi V + compound", "setting": "hVISA 2275", "result": 0.54}, {"measurement": "Van FIC", "setting": "hVISA 2275", "result": 0.50}, {"measurement": "compound FIC", "setting": "hVISA 2275", "result": 0.04}, {"measurement": "fold decrease Van MIC", "setting": "hVISA 2275", "result": 2, "unit": "fold"}, {"measurement": "MIC (in combination) compound+", "setting": "hVISA 2275; compound MIC with the indicated Van concentration", "result": 0.56}, {"measurement": "Synergy category", "setting": "hVISA 2275; with vancomycin, listed as Pyr", "result": "partial (partially potentiated vancomycin (FIC i>0.5 and <1.0))"}, {"measurement": "MIC 80 of Ox in presence of compound", "setting": "diverse MRSA strains; panel of 11 MRSA isolates, clom 3.8 μM, gos 15 μM, pyr 0.5 μM", "result": 32, "unit": "µg/mL"}, {"measurement": "MIC50 of oxacillin in the presence of compound", "setting": "diverse MRSA strains; panel of strains", "result": 1, "unit": "mg/L"}, {"measurement": "MIC80 of oxacillin in the presence of compound", "setting": "diverse MRSA strains; panel of strains", "result": 32, "unit": "µg/L"}, {"measurement": "fold decrease in the oxacillin MIC50", "setting": "diverse MRSA strains; panel of strains, with compound against oxacillin alone", "result": 16, "unit": "fold"}, {"measurement": "oxacillin MIC", "setting": "[3]; compound 0.25 μM", "result": 16, "unit": "mg/L"}, {"measurement": "oxacillin MIC", "setting": "[3]; compound 0.5 μM", "result": 4, "unit": "mg/L"}, {"measurement": "oxacillin MIC", "setting": "[3]; compound 1 μM", "result": 2, "unit": "mg/L"}, {"measurement": "change of the MIC of oxacillin with compound concentration", "setting": "[3]; strain 923, checkerboard", "result": "dose dependent decrease"}, {"measurement": "bactericidal effect of oxacillin (MBC, >99.9% killing)", "setting": "[3]; strain 923, wells with FICi≦0.5 spotted on TSA", "result": "increased the bactericidal effect of oxacillin"}, {"measurement": "primary screen category by effect on vraSR (Pvra-lux luminescence)", "setting": "[4]", "result": "repressed Pvra::lux in both primary screens"}, {"measurement": "MIC cmpd alone", "setting": "MRSA strain 8004-01", "result": ">4"}, {"measurement": "MIC cmpd +", "setting": "MRSA strain 8004-01; compound in combination with oxacillin", "result": ">4", "unit": "mg/L"}, {"measurement": "FICi", "setting": "MRSA strain 8004-01; oxacillin + compound", "result": 7}, {"measurement": "MIC OX (+)", "setting": "MRSA strain 8004-01; [6]", "result": ">256"}, {"measurement": "primary screen category by effect on growth of MRSA strain 923", "setting": "[5]", "result": "strong growth inhibitors on their own"}, {"measurement": "classification of lux screen result against qRT-PCR (true/false repressor or stimulator)", "setting": "vraR transcription; in the presence of oxacillin", "result": "true vraSR expression repressors"}, {"measurement": "Effect on vraSR Transcription: With oxacillin", "setting": "vraR transcription; qRT-PCR of vraR, compound 10 μM + oxacillin 2 μg/mL", "result": "vraR inhibitors; also recorded: repress"}, {"measurement": "Synergy category", "setting": "VISA 2283", "result": "non syn"}]}]}
